Cc1cc(O)c2c(c1)C(=O)c1cc(O)cc(O)c1C2=O
solubility (mole fraction)
Details	273.65 K	278.35 K	289.35 K	298.15 K	307.5 K	313.25 K	318.05 K	323.05 K
in ethanol	0.000485	0.000626	0.000777	0.000936	0.00116	0.00148	0.00168	0.00216
in n-octanol	0.00221	0.00239	0.00266	0.00272	0.00299	0.00347	0.00404	0.00463

Source: BigSolDB 2.1
